According to ChEMBL document CHEMBL1154793, “The lecanindoles, nonsteroidal progestins from the terrestrial fungus Verticillium lecanii 6144” (J Nat Prod, 2009):

What was measured:
[1] = target: T1, Progesterone receptor (Homo sapiens, UniProt P06401); assay: Displacement of progesterone from progesterone receptor in human T47D cells after 3 hrs; format: cell-based
T1 sequence (P06401 whole entry): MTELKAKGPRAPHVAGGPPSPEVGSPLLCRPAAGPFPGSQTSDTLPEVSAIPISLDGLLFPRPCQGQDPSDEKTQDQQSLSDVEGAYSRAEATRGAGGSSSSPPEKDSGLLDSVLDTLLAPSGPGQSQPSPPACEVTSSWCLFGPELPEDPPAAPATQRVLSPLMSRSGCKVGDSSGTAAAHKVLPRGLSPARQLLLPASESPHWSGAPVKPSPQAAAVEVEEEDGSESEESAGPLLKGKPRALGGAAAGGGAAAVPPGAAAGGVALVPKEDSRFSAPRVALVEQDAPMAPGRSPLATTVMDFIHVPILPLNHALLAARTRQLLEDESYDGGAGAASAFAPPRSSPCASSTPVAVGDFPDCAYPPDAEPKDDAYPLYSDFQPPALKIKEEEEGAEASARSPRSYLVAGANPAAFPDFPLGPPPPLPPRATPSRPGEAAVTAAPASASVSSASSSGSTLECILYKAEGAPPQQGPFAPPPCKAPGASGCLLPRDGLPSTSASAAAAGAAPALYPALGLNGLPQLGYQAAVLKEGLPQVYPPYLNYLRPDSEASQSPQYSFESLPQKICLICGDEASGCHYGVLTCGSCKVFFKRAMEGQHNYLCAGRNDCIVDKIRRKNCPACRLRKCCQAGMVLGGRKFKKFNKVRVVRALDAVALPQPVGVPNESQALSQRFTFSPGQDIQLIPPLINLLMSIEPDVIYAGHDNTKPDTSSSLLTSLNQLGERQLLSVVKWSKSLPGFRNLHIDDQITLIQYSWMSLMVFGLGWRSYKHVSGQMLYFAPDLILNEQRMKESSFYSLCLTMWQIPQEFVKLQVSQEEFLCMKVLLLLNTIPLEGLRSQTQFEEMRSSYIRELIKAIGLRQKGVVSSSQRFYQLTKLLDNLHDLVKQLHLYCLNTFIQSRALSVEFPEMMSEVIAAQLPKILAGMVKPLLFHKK

[2] = target: T1, Progesterone receptor; assay: Displacement of [3H]progesterone from progesterone receptor in human T47D cells after 3 hrs by scintillation counting; format: cell-based
[3] = target: T2, Progesterone receptor (Homo sapiens) (UniProt P06401); assay: Ratio of compound IC50 to progesterone IC50 for progesterone receptor in human T47D cells; format: cell-based
T2 sequence (whole entry): T1 sequence (P06401 whole entry)

[4] = target: T2, Progesterone receptor (Homo sapiens); assay: Ratio of compound EC50 to progesterone EC50 for progesterone receptor in human T47D cells; format: cell-based
[5] = target: T3, Glucocorticoid receptor (Homo sapiens) (UniProt P04150); assay: Antagonist activity at glucocorticoid receptor ligand binding domain expressed in african green monkey COS7 cells co-transfected with Gal4-LBD by luciferase reporter gene assay relative to control; format: cell-based; design: scale not given: the % may be the effect or the level left; details: COS-7
T3 sequence (whole entry): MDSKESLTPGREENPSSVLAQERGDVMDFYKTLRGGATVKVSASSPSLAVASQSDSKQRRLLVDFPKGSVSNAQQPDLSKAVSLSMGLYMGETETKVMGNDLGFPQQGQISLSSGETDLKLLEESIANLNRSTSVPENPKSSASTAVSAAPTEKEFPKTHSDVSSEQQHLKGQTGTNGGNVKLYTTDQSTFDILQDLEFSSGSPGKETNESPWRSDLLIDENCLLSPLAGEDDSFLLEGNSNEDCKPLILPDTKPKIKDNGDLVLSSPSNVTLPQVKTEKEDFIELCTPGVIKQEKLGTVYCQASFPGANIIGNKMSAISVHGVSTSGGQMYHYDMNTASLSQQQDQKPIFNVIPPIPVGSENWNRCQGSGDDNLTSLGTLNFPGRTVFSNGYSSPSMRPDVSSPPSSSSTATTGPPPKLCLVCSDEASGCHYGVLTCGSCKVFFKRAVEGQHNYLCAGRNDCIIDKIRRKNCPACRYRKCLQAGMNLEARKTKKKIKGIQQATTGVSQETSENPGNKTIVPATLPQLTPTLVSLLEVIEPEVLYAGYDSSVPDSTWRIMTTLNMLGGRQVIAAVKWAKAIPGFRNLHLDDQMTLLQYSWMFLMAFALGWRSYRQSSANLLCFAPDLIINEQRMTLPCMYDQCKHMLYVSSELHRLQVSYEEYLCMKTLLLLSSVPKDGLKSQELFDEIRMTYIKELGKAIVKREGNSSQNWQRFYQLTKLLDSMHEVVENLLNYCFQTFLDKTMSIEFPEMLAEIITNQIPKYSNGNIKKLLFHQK

[6] = target: T4, Estrogen receptor (Homo sapiens) (UniProt P03372); assay: Antagonist activity at estrogen receptor alpha ligand binding domain expressed in african green monkey COS7 cells co-transfected with Gal4-LBD by luciferase reporter gene assay relative to control; format: cell-based; design: scale not given: the % may be the effect or the level left; details: COS-7
T4 sequence (whole entry): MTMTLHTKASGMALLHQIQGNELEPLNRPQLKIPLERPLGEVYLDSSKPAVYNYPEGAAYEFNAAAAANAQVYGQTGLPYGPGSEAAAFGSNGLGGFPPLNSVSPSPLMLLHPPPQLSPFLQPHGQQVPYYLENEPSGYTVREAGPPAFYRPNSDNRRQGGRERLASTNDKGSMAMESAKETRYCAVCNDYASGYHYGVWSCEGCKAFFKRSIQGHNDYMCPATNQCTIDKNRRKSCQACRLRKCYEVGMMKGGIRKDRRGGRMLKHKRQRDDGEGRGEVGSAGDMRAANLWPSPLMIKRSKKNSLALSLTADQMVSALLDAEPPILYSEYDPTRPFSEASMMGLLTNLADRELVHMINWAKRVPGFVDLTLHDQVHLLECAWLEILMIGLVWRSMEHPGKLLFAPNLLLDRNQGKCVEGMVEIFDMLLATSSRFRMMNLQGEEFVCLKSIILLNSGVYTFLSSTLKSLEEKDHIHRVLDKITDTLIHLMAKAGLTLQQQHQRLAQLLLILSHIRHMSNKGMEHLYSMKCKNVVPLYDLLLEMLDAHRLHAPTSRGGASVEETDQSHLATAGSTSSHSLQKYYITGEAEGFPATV

[7] = target: T5, Glucocorticoid receptor (Homo sapiens, UniProt P04150)
T5 sequence (P04150 whole entry): T3 sequence (whole entry)

[8] = target: T6, Estrogen receptor (Homo sapiens, UniProt P03372)
T6 sequence (P03372 whole entry): T4 sequence (whole entry)

[9] = target: T1, Progesterone receptor; assay: Activation of progesterone receptor in human T47D cells up to 1000 nM after 20 hrs by PRE-tagged luciferase reporter gene assay; format: cell-based
[10] = target: T5, Glucocorticoid receptor; assay: Antagonist activity at glucocorticoid receptor ligand binding domain expressed in african green monkey COS7 cells co-transfected with Gal4-LBD up to 10 uM by luciferase reporter gene assay; format: cell-based; details: cos-7
[11] = target: T6, Estrogen receptor; assay: Antagonist activity at estrogen receptor alpha ligand binding domain expressed in african green monkey COS7 cells co-transfected with Gal4-LBD up to 10 uM by luciferase reporter gene assay; format: cell-based; details: cos-7

**Q.** Which results are given for CC1(C)[C@H](O)CC[C@]2(C)[C@@]3(C)c4[nH]c5ccccc5c4C[C@@H]3CC[C@@]12O [LECANINDOLE D]?
**A.** IC50 [1]: 5.5 nM; IC50 [2]: 57.3 nM; Ratio IC50 [3]: 10; Ratio EC50 [4]: 10; Activity [5]: 58%; Activity [6]: 19%; IC50 [7]: > 1000 nM; IC50 [8]: > 10000 nM

**Q.** What does the source list for CC1(C)C(=O)CC[C@]2(C)[C@@]3(C)c4[nH]c5ccccc5c4C[C@@H]3CC[C@@]12O [LECANINDOLE B]?
**A.** EC50 [9]: Not Active; IC50 [10]: Not Active; IC50 [11]: Not Active
